Source: US11390613B2, “Azole analogues and methods of use thereof” (UNIVERSITY OF CONNECTICUT, priority 2017, dated 2022)

The compounds below were run on Gli1 mRNA levels in the murine BCC cell line ASZ-001 (Hh pathway) (assay: Hh pathway inhibition: endogenous Gli1 mRNA (qRT-PCR) in ASZ-001 cells). Details: Mus musculus, ASZ001, 48 h.
Assay type: cell-based
Protocol: Initial Hh inhibition studies.
General Information for Cell Culture Studies Protocols for general cell culture, qPCR, and Hh inhibition ASZ cells are as previously described.
General Information for Cell Culture Studies. Protocols for general cell culture, qPCR, and Hh inhibition ASZ cells are as previously described.
Gene Expression Assay Protocol (ASZ-001): Cells are seeded (10,000 cells per well; 100 μL total volume per well) in a 96-well tissue culture plate. After 24 h of incubation (37° C., 5% CO2), growth media was removed and replaced with low FBS media. Cells were incubated for an additional 24 h. After this time, DMSO (vehicle control) and liposomes (Aqueous Solution) were added to the wells. […]
Rt-PCR Protocol: Following treatment and incubation periods, both RNA extraction and cDNA synthesis were performed using a TaqMan Cells-to-CT (fast) kit. cDNA synthesis utilized a BioRad MyCycler and was programmed according to the manufacturer's instructions. Quantitative RT-PCR was performed on an ABI 7500 system and made use of the following TaqMan Gene Expression Probes: mouse ActB (Mm00607939_s1) and mouse Gli1 (Mm00494654_m1). Relative gene expression levels were computed via ΔΔCT method using GraphPad Prism. Corresponding IC50 values were calculated as mean±SEM for at least three separate experiments performed in triplicate.
C[C@]1(c2ccc(Cl)cc2Cl)OC[C@@H](COc2ccc(N3CCN(c4ccc(NC(=O)c5ccccc5O)cc4)CC3)cc2)O1 [Compound 29, N-(4-(4-(4-(((2S,4R)-2-(2,4-dichlorophenyl)-2-methyl-1,3-dioxolan-4-yl)methoxy)phenyl)piperazin-1-yl)phenyl)-2-hydroxybenzamide] gave an IC50 of 2200 ± 300 nM.
In the case of COc1cccc(C(=O)Nc2ccc(N3CCN(c4ccc(OC[C@@H]5CO[C@](C)(c6ccc(Cl)cc6Cl)O5)cc4)CC3)cc2)c1 [Compound 33, N-(4-(4-(4-(((2S,4R)-2-(2,4-dichlorophenyl)-2-methyl-1,3-dioxolan-4-yl)methoxy)phenyl)piperazin-1-yl)phenyl)-3-methoxybenzamide], the IC50 is reported as 5700 nM.
In the case of C[C@]1(c2ccc(Cl)cc2Cl)OC[C@@H](COc2ccc(N3CCN(c4ccc(N)cc4)CC3)cc2)O1 [Compound 9, 4-(4-(4-(((2S,4R)-2-(2,4-dichlorophenyl)-2-methyl-1,3-dioxolan-4-yl)methoxy)phenyl)piperazin-1-yl)aniline], the IC50 is reported as 390 ± 90 nM.
In the case of C[C@]1(c2ccc(Cl)cc2Cl)OC[C@@H](COc2ccc(N3CCN(c4ccc(-n5cn[nH]c5=O)cc4)CC3)cc2)O1 [Compound 42, 4-(4-(4-(4-(((2S,4R)-2-(2,4-dichlorophenyl)-2-methyl-1,3-dioxolan-4-yl)methoxy)phenyl)piperazin-1-yl)phenyl)-1H-1,2,4-triazol-5(4H)-one], the IC50 is reported as 210 nM.
C[C@]1(c2ccc(Cl)cc2Cl)OC[C@@H](COc2ccc(N3CCN(c4ccc([N+](=O)[O-])cc4)CC3)cc2)O1 [Compound 7, 1-(4-(((2S,4R)-2-(2,4-dichlorophenyl)-2-methyl-1,3-dioxolan-4-yl)methoxy)phenyl)-4-(4-nitrophenyl)piperazine] was tested, and the IC50 was 260 ± 40 nM.
With C[C@]1(c2ccc(F)cc2F)C[C@H](COc2ccc(N3CCN(c4ccc(NC(=O)Oc5ccccc5)cc4)CC3)cc2)CO1 [Compound P21, phenyl (4-(4-(4-(((3R,5R)-5-(2,4-difluorophenyl)-5-methyltetrahydrofuran-3-yl)methoxy)phenyl)piperazin-1-yl)phenyl)carbamate] the IC50 was > 10000 nM.

Same assay, conditions: Mus musculus, ASZ001; Table P2; ASZ cells, Gli1 mRNA, 48 h incubation; read-out: IC50
With C[C@]1(c2ccc(F)cc2F)C[C@H](COc2ccc(N3CCN(c4ccc([N+](=O)[O-])cc4)CC3)cc2)CO1 [Compound P19, 1-(4-(((3R,5R)-5-(2,4-difluorophenyl)-5-methyltetrahydrofuran-3-yl)methoxy)phenyl)-4-(4-nitrophenyl)piperazine] the IC50 was 740 ± 150 nM.
C[C@]1(c2ccc(F)cc2F)C[C@H](COc2ccc(N3CCN(c4ccc(-n5cn[nH]c5=O)cc4)CC3)cc2)CO1 [Compound P23, 4-(4-(4-(4-(((3R,5R)-5-(2,4-difluorophenyl)-5-methyltetrahydrofuran-3-yl)methoxy)phenyl)piperazin-1-yl)phenyl)-2,4-dihydro-3H-1,2,4-triazol-3-one] gave an IC50 of 190 ± 100 nM.
Compound CC(=O)c1cccc(C(=O)Nc2ccc(N3CCN(c4ccc(OC[C@@H]5CO[C@@](C)(c6ccc(F)cc6F)C5)cc4)CC3)cc2)c1 [Compound P24, 3-acetyl-N-(4-(4-(4-(((3R,5R)-5-(2,4-difluorophenyl)-5-methyltetrahydrofuran-3-yl)methoxy)phenyl)piperazin-1-yl)phenyl)benzamide] has an IC50 of 24 ± 9 nM.
C[C@]1(c2ccc(F)cc2F)C[C@H](COc2ccc(N3CCN(c4ccc(-n5cnn(CCC(=O)O)c5=O)cc4)CC3)cc2)CO1 [Compound P13, 3-(4-(4-(4-(4-(((3R,5R)-5-(2,4-difluorophenyl)-5-methyltetrahydrofuran-3-yl)methoxy)phenyl)piperazin-1-yl)phenyl)-5-oxo-4,5-dihydro-1H-1,2,4-triazol-1-yl)propanoic acid] showed an IC50 of 32 ± 10 nM.
With C[C@]1(c2ccc(F)cc2F)C[C@H](COc2ccc(N3CCN(c4ccc(NC(=O)NN)cc4)CC3)cc2)CO1 [Compound P22, N-(4-(4-(4-(((3R,5R)-5-(2,4-difluorophenyl)-5-methyltetrahydrofuran-3-yl)methoxy)phenyl)piperazin-1-yl)phenyl)hydrazinecarboxamide] the IC50 was 220 ± 80 nM.
C[C@]1(c2ccc(F)cc2F)C[C@H](COc2ccc(N3CCN(c4ccc(-n5cnn(CCCO)c5=O)cc4)CC3)cc2)CO1 [Compound P15, 4-(4-(4-(4-(((3R,5R)-5-(2,4-difluorophenyl)-5-methyltetrahydrofuran-3-yl)methoxy)phenyl)piperazin-1-yl)phenyl)-2-(3-hydroxypropyl)-2,4-dihydro-3H-1,2,4-triazol-3-one] was tested, and the IC50 was 20 ± 10 nM.
In the case of C[C@]1(c2ccc(F)cc2F)C[C@H](COc2ccc(N3CCN(c4ccc(N)cc4)CC3)cc2)CO1 [Compound P20, 4-(4-(4-(((3R,5R)-5-(2,4-difluorophenyl)-5-methyltetrahydrofuran-3-yl)methoxy)phenyl)piperazin-1-yl)aniline], the IC50 is reported as 330 ± 120 nM.
With CC1(c2ccc(Cl)cc2Cl)OCC(COc2ccc(N3CCN(c4ccc(-n5cnn(CCC(=O)O)c5=O)cc4)CC3)cc2)O1 (centres unmarked) [Compound I17, 3-(4-(4-(4-(4-((2-(2,4-dichlorophenyl)-2-methyl-1,3-dioxolan-4-yl)methoxy)phenyl)piperazin-1-yl)phenyl)-5-oxo-4,5-dihydro-1H-1,2,4-triazol-1-yl)propanoic acid] the IC50 was 12 ± 5 nM.
C[C@]1(c2ccc(F)cc2F)C[C@H](COc2ccc(N3CCN(c4ccc(-n5cnn(CC(=O)O)c5=O)cc4)CC3)cc2)CO1 [Compound P14, 2-(4-(4-(4-(4-(((3R,5R)-5-(2,4-difluorophenyl)-5-methyltetrahydrofuran-3-yl)methoxy)phenyl)piperazin-1-yl)phenyl)-5-oxo-4,5-dihydro-1H-1,2,4-triazol-1-yl)acetic acid] was tested, and the IC50 was 150 ± 20 nM.

Same assay, conditions: Table 6; ASZ cells, Gli1 mRNA, 48 h incubation; read-out: IC50
C[C@]1(c2ccc(Cl)cc2Cl)OC[C@@H](COc2ccc(N3CCN(c4ccc(NC(=O)c5ccc6ccccc6c5)cc4)CC3)cc2)O1 [Compound 16, N-(4-(4-(4-(((2S,4R)-2-(2,4-dichlorophenyl)-2-methyl-1,3-dioxolan-4-yl)methoxy)phenyl)piperazin-1-yl)phenyl)-2-naphthamide] was tested, and the IC50 was > 10000 nM.
In the case of C[C@]1(c2ccc(Cl)cc2Cl)OC[C@@H](COc2ccc(N3CCN(c4ccc(NC(=O)c5ccc(O)cc5)cc4)CC3)cc2)O1 [Compound 31, N-(4-(4-(4-(((2S,4R)-2-(2,4-dichlorophenyl)-2-methyl-1,3-dioxolan-4-yl)methoxy)phenyl)piperazin-1-yl)phenyl)-4-hydroxybenzamide], the IC50 is reported as 3000 ± 100 nM.
In the case of C[C@@]1(c2ccc(Cl)cc2Cl)OC[C@@H](COc2ccc(N3CCN(c4ccc(NC(=O)c5ccc(O)cc5)cc4)CC3)cc2)O1 [Compound 28, N-(4-(4-(4-(((2R,4R)-2-(2,4-dichlorophenyl)-2-methyl-1,3-dioxolan-4-yl)methoxy)phenyl)piperazin-1-yl)phenyl)-4-hydroxybenzamide], the IC50 is reported as > 10000 nM.
In the case of C[C@]1(c2ccc(Cl)cc2Cl)OC[C@@H](COc2ccc(N3CCN(c4ccc(NC(=O)c5ccncc5)cc4)CC3)cc2)O1 [Compound 19, N-(4-(4-(4-(((2S,4R)-2-(2,4-dichlorophenyl)-2-methyl-1,3-dioxolan-4-yl)methoxy)phenyl)piperazin-1-yl)phenyl)isonicotinamide], the IC50 is reported as > 10000 nM.
C[C@@]1(c2ccc(Cl)cc2Cl)OC[C@@H](COc2ccc(N3CCN(c4ccc(NC(=O)c5ccncc5)cc4)CC3)cc2)O1 [Compound 14, N-(4-(4-(4-(((2R,4R)-2-(2,4-dichlorophenyl)-2-methyl-1,3-dioxolan-4-yl)methoxy)phenyl)piperazin-1-yl)phenyl)isonicotinamide] was tested, and the IC50 was > 10000 nM.

Same assay, conditions: Table 7; ASZ cells, Gli1 mRNA, 48 h incubation
C[C@]1(c2ccc(Cl)cc2Cl)OC[C@@H](COc2ccc(N3CCN(c4ccc(NC(=O)c5ccoc5)cc4)CC3)cc2)O1 [Compound 35, N-(4-(4-(4-(((2S,4R)-2-(2,4-dichlorophenyl)-2-methyl-1,3-dioxolan-4-yl)methoxy)phenyl)piperazin-1-yl)phenyl)furan-3-carboxamide] was tested, and the “IC50 (μM)” value was “inactive”.
In the case of C[C@]1(c2ccc(Cl)cc2Cl)OC[C@@H](COc2ccc(N3CCN(c4ccc(NC(=O)c5ccsc5)cc4)CC3)cc2)O1 [Compound 36, N-(4-(4-(4-(((2S,4R)-2-(2,4-dichlorophenyl)-2-methyl-1,3-dioxolan-4-yl)methoxy)phenyl)piperazin-1-yl)phenyl)thiophene-3-carboxamide], the “IC50 (μM)” value is reported as “inactive”.

Same assay, conditions: Table 7; ASZ cells, Gli1 mRNA, 48 h incubation; read-out: IC50
In the case of C[C@]1(c2ccc(Cl)cc2Cl)OC[C@@H](COc2ccc(N3CCN(c4ccc(NC(=O)c5ccoc5)cc4)CC3)cc2)O1 [Compound 35, N-(4-(4-(4-(((2S,4R)-2-(2,4-dichlorophenyl)-2-methyl-1,3-dioxolan-4-yl)methoxy)phenyl)piperazin-1-yl)phenyl)furan-3-carboxamide], the IC50 is reported as > 10000 nM.
With C[C@]1(c2ccc(Cl)cc2Cl)OC[C@@H](COc2ccc(N3CCN(c4ccc(NC(=O)c5ccsc5)cc4)CC3)cc2)O1 [Compound 36, N-(4-(4-(4-(((2S,4R)-2-(2,4-dichlorophenyl)-2-methyl-1,3-dioxolan-4-yl)methoxy)phenyl)piperazin-1-yl)phenyl)thiophene-3-carboxamide] the IC50 was > 10000 nM.
In the case of C[C@]1(c2ccc(Cl)cc2Cl)OC[C@@H](COc2ccc(N3CCN(c4ccc(NC(=O)c5cccc(Cl)c5)cc4)CC3)cc2)O1 [Compound 32, 3-chloro-N-(4-(4-(4-(((2S,4R)-2-(2,4-dichlorophenyl)-2-methyl-1,3-dioxolan-4-yl)methoxy)phenyl)piperazin-1-yl)phenyl)benzamide], the IC50 is reported as > 10000 nM.

Same assay, conditions: Table P2; ASZ cells, Gli1 mRNA, 48 h incubation; read-out: IC50
Work on C[C@]1(c2ccc(F)cc2F)C[C@H](COc2ccc(N3CCN(c4ccc(NC(=O)c5cccnc5)cc4)CC3)cc2)CO1 [Compound P26, N-(4-(4-(4-(((3R,5R)-5-(2,4-difluorophenyl)-5-methyltetrahydrofuran-3-yl)methoxy)phenyl)piperazin-1-yl)phenyl)nicotinamide] yielded an IC50 of 38 nM.
